Reference: patent US6794378B2, “Heterocyclic compounds and medical use thereof” (Ajinomoto Co., Inc., priority 1999, dated 2004)
Values after ≈ are worked out from the molar mass of the structure shown.

The compounds below were run on delayed-type hypersensitivity reaction (assay: Delayed-type hypersensitivity reaction inhibition test (TTx challenge in thoracic skin)). Settings: Rhesus monkeys, 50 mg/kg orally twice daily for 4 weeks; TTx challenge day 28, skin reactions 24 and 48 hours after, Draize criteria.
Type: in vivo
Protocol: (§1) An antibody titer inhibition test and a delayed-type hypersensitivity reaction inhibition test
(§2) Rhesus monkeys (female, aged four to six) subjected to the test were sensitized with 6Lf of TTx (Tetanus Toxoid) both in the back skin and in the femur muscle under anesthesia by an intramuscular injection of ketamine. The subject drug at the dose of 50 mg/kg had been administered twice daily (7:00 am and 7:00 pm) for 4 weeks starting at the day of TTx sensitization. The drug was suspended with 0.5% Tween 80 solution and was orally administered using a gastric catheter. The control animals were administered with the vehicle in the same manner as those for the test article. One ml of blood was drawn from femoral vein of each animal twice a week to obtain sera with which the anti-TTx antibody titer was evaluated by the ELISA method. The antibody titer was determined with OD of serially-diluted serum from 1:100 by 2 times and was defined as the degree of dilution reaching to “an average OD of the antibody before immunization+2×SD”. One hour after the final administration in the morning on day 28, TTx was challenged once in the thoracic skin (10, 3, 1, 0.3, 0.1, 0.03 Lf/ml, 10 μl/site), and skin reactions at the injection sites were observed 24 and 48 hours after the TTx challenge. The delayed-type hypersensitivity reaction was scored according to the Draize dermal test criteria.
In the case of `CC1(C)C[C@@H]1C(=O)Nc1ccc(Oc2ccc(NC(=O)[C@H]3CC3(C)C)cn2)cc1` [Example 43], the “inhibiting effect on delayed-type hypersensitivity reaction” value is reported as “exhibited its inhibiting effect”.

What follows are compounds tested on NF-kappa B transcriptional activity (assay: Evaluation of the NF-kappa B inhibition (β-gal reporter in immortalized HUVEC, IL-1 β induced)). Settings: Homo sapiens; HUVEC NF-kappaB β-gal reporter cells; IL-1 β induction; β-gal activity determined 16 hours after; read-out: NFkB inhibition activity IC50.
Type: cell-based
Protocol: Evaluation of the NF-kappa B Inhibition
Cells used for the tests were those prepared by stably introducing E. coli β-galactosidase (β-gal) genes driven by SV 40 minimum promoter fused with 6 tandems of the NF-KappaB binding motif derived from immunoglobulin kappa light chain enhancer into human normal umbilical cord vein endothelial cells (HUVEC) immortalized with SV 40 large T antigen. The cells were subcultured in RPMI medium containing 10% of FBS, and were seeded on a 96-well plate in a concentration of 1×10^4/well on a day before the start of the experiments. A compound of the present invention was dissolved in DMSO to obtain a solution of a proper concentration, which was added into the 96-well plate so that the final DMSO concentration would be not higher than 1%. 30 minutes after the addition of the compound, in order to induce NF-kappa B transcriptional activity, […] of IL-1 β was added to each well so as to obtain the final concentration of […]. β-gal activity was determined 16 hours after with a chemiluminescent substrate (Galacton-Light-Plus: Boehringer Mannheim) according to a protocol attached to the reagent. A Luminescence detector (ATTO) was used for the determination.
With `CC1(C)CC1C(=O)Nc1ccc(Oc2ccc(NC(=O)C3CC3(C)C)cn2)cc1` (stereo not shown) [Example 1] the IC50 was 0.5 µg/mL (≈ 1.27 µM).
`CC1(C)CC1C(=O)Nc1ccc(Sc2ccc(NC(=O)C3CC3(C)C)cn2)cc1` (stereo not shown) [Example 2] gave an IC50 of 0.3 µg/mL (≈ 0.733 µM).
Compound `CC1(C)CC1C(=O)Nc1ccc(Nc2ccc(NC(=O)C3CC3(C)C)cn2)cc1` (stereo not shown) [Example 3] has an IC50 of 0.8 µg/mL (≈ 2.04 µM).
`CC1(C)CC1C(=O)Nc1ccc(C(O)c2ccc(NC(=O)C3CC3(C)C)nc2)cc1` (stereo not shown) [Example 4] showed an IC50 of 1 µg/mL (≈ 2.45 µM).
With `CC1(C)CC1C(=O)Nc1ccc(Cc2ccc(NC(=O)C3CC3(C)C)nc2)cc1` (stereo not shown) [Example 5] the IC50 was 0.9 µg/mL (≈ 2.3 µM).
For `CC1(C)CC1C(=O)Nc1ccc(C(O)c2ccc(NC(=O)C3CC3(C)C)cn2)cc1` (stereo not shown) [Example 6], the IC50 was 0.4 µg/mL (≈ 0.982 µM).
In the case of `CC1(C)CC1C(=O)Nc1ccc(Cc2ccc(NC(=O)C3CC3(C)C)cn2)cc1` (stereo not shown) [Example 7], the IC50 is reported as 1.5 µg/mL (≈ 3.83 µM).
In the case of `CC1(C)CC1C(=O)Nc1ccc(Oc2ccc(NC(=O)C3CC3(C)C)nn2)cc1` (stereo not shown) [Example 8], the IC50 is reported as 1.5 µg/mL (≈ 3.8 µM).
With `CC1(C)CC1C(=O)Nc1ccc(Nc2ncc(NC(=O)C3CC3(C)C)cn2)cc1` (stereo not shown) [Example 9] the IC50 was 0.7 µg/mL (≈ 1.78 µM).
With `CC1(C)CC1C(=O)Nc1ccc(CSc2ccc(NC(=O)C3CC3(C)C)cn2)cc1` (stereo not shown) [Example 14] the IC50 was 0.015 µg/mL (≈ 0.0354 µM).
`Cc1cc(Oc2ccc(NC(=O)C3CC3(C)C)cn2)ccc1NC(=O)C1CC1(C)C` (stereo not shown) [Example 22] gave an IC50 of 0.15 µg/mL (≈ 0.368 µM).
For `O=C(Nc1ccc(Oc2ccc(NC(=O)C3CC3(Cl)Cl)cn2)cc1)C1CC1(Cl)Cl` (stereo not shown) [Example 26], the IC50 was 0.15 µg/mL (≈ 0.316 µM).
Compound `CC1CCCCC1C(=O)Nc1ccc(Oc2ccc(NC(=O)C3CCCCC3C)cn2)cc1` (stereo not shown) [Example 29] has an IC50 of 1 µg/mL (≈ 2.22 µM).
Work on `CC1(C)CC1C(=O)Nc1ccc(Oc2ccc(NC(=O)c3ccccc3)cc2)nc1` (stereo not shown) [Example 31] yielded an IC50 of 1.5 µg/mL (≈ 3.74 µM).
`CC1(C)CC1C(=O)Nc1ccc(Oc2ccc(NC(=O)Cc3ccccc3)cc2)nc1` (stereo not shown) [Example 32] gave an IC50 of 0.1 µg/mL (≈ 0.241 µM).
Work on `CC1(C)CC1C(=O)Nc1ccc(Oc2ccc(NC(=O)Cc3ccc(Cl)cc3)cc2)nc1` (stereo not shown) [Example 33] yielded an IC50 of 0.2 µg/mL (≈ 0.445 µM).
For `COc1ccc(CC(=O)Nc2ccc(Oc3ccc(NC(=O)C4CC4(C)C)cn3)cc2)cc1` (stereo not shown) [Example 34], the IC50 was 0.3 µg/mL (≈ 0.673 µM).
`CC1(C)CC1C(=O)Nc1ccc(Oc2ccc(NC(=O)CCCc3ccccc3)cc2)nc1` (stereo not shown) [Example 37] showed an IC50 of 0.09 µg/mL (≈ 0.203 µM).
`CC1(C)CC1C(=O)Nc1ccc(Oc2ccc(NCCc3ccccc3)cc2)nc1` (stereo not shown) [Example 38] gave an IC50 of 0.05 µg/mL (≈ 0.125 µM).
Work on `CC1(C)CC1C(=O)Nc1ccc(Oc2ccc(NCCCc3ccccc3)cc2)nc1` (stereo not shown) [Example 39] yielded an IC50 of 0.035 µg/mL (≈ 0.0842 µM).
`CC1(C)C[C@@H]1C(=O)Nc1ccc(Oc2ccc(NC(=O)[C@H]3CC3(C)C)cn2)cc1` [Example 43] showed an IC50 of 0.25 µg/mL (≈ 0.635 µM).
`CC1(C)C[C@@H]1C(=O)Nc1ccc(Oc2ccc(NC(=O)[C@@H]3CC3(C)C)cc2)nc1` [Example 44] was tested, and the IC50 was 0.1 µg/mL (≈ 0.254 µM).
`CC1(C)C[C@@H]1C(=O)Nc1ccc(Oc2ccc(NC(=O)[C@@H]3CC3(C)C)cn2)cc1` [Example 45] showed an IC50 of 1 µg/mL (≈ 2.54 µM).

These compounds were tested on anti-TTx antibody titer (assay: Antibody titer inhibition test (TTx-sensitized monkeys, ELISA)). Settings: Rhesus monkeys, 50 mg/kg orally twice daily for 4 weeks from TTx sensitization.
Type: in vivo
Protocol: as §1, §2
`CC1(C)C[C@@H]1C(=O)Nc1ccc(Oc2ccc(NC(=O)[C@H]3CC3(C)C)cn2)cc1` [Example 43] was tested, and the “inhibiting effect on anti-TTx antibody titer” value was “exhibited its inhibiting effect”.
